Key:
[1] = system: Plasmopara viticola (downy mildew); test: Foliar spray fungicide test, Plasmopara viticola (downy mildew) on grape; settings: Plasmopara viticola, foliar, read-out: PLASVI disease control
Protocol: (§3) The test compounds were formulated for application by dissolving 50 mg of the compound into 1.25 ml of solvent. The solvent was prepared by mixing 50 ml of "Tween 20" (polyoxyethylene (20) sorbitan monolaurate emulsifier) with 475 ml of acetone and 475 ml of ethanol. The solvent/compound solution was diluted to 125 ml with deionized water. The resulting formulation contains 400 ppm test chemical. Lower concentrations were obtained by serial dilution with the solvent-surfactant mixture.
The formulated test compounds were applied by foliar spray.
(§4) The formulated technical compounds were sprayed on all foliar surfaces of the host plants to past run-off. Single pots of each host plant were placed on raised, revolving pedestals in a fume hood. Test solutions were sprayed on all foliar surfaces. All treatments were allowed to dry and the plants were inoculated with the appropriate pathogens within 24 hours.
(§5) The effectiveness of test compounds in controlling disease was rated using the following scale.

[2] = system: Erysiphe graminis tritici (powdery mildew); test: Foliar spray fungicide test, Erysiphe graminis tritici (powdery mildew) on wheat; settings: Blumeria graminis, in Triticum aestivum, foliar, read-out: ERYSGT disease control, host wheat, 400 ppm (+++: 100 ppm)
Protocol: as §3
(§6) The formulated test compounds were applied by foliar spray. The following plant pathogens and their corresponding plants were employed.
as §4, §5

[3] = system: tobacco budworm (Heliothis virescens); test: Activity against tobacco budworm; format: in vivo; settings: Heliothis virescens, 144 h, 6 days, read-out: TBW activity (rated on live and dead larvae and size of live larvae)
Protocol: (§1) The compounds identified in Table I were tested for miticidal and insecticidal activity against eight species. The following abbreviations are used in the Table III:
TBW refers to tobacco budworm
(§2) In conducting evaluations of insecticidal activity, each test compound was formulated as a 400 ppm solution, and this solution was then diluted with water to give lesser concentrations. The 400 ppm solution was prepared by combining 19.2 mL of 0.05% solution of Tween 20 (polyoxyethylene (20) sorbitan monolaurate) in water with a solution of 8 mg of the compound in 0.8 mL of acetone/EtOH (9/1).
Activity against tobacco budworm (Heliothis virescens) was evaluated as follows. A general purpose lepidoptera artificial diet was diluted to half strength with a 5% non nutritive agar. 8 mL of this diet material was dispensed into each one ounce diet cup. One hour prior to treatment 18 to 20 eggs were dispensed onto the diet surface. The cups were then sprayed with formulated material through a flat-fan nozzle. The test was run using concentrations of 400 ppm and 50 ppm. Treated cups were air dried prior to sealing with plastic caps. The cups were held for 6 days at room temperature. Activity was then rated based on the total number of live and dead larvae, and on the size of live larvae.

[4] = system: beet armyworm (Spodoptera exiqua); test: Activity against beet armyworm; format: in vivo; settings: Spodoptera, 144 h, 6 days, read-out: BAW activity (rated on live and dead larvae and size of live larvae)
Protocol: as §1
BAW refers to beet armyworm
as §2
Activity against beet armyworm (Spodoptera exiqua) was evaluated as follows. The test is run using concentrations of 400 ppm and 50 ppm. A general purpose lepidoptera artificial diet was diluted to half strength with a 5% non nutritive agar. 8 mL of this diet material was dispensed into one ounce diet cups. One hour prior to treatment, 35 to 40 eggs were dispensed onto the diet surface. The cups were then sprayed with formulated material through a flat-fan nozzle. Treated cups were air dried prior to sealing with plastic caps. The cups were held for 6 days at room temperature. Activity was then rated based on the total number of live and dead larvae, and on the size of live larvae.

[5] = system: Leptosphaeria nodorum (glume blotch); test: Foliar spray fungicide test, Leptosphaeria nodorum (glume blotch) on wheat; settings: Parastagonospora nodorum, in Triticum aestivum, foliar, read-out: LETPNO disease control, host wheat, 400 ppm (+++: 100 ppm)
[6] = system: aster leafhopper (Macrosteles fascifrons); test: whole plant or invertebrate; format: in vivo; settings: Macrosteles fascifrons, 24 h, read-out: ALH percent mortality
Protocol: as §1
ALH refers to aster leafhopper
as §2
Activity against aster leafhopper (Macrosteles fascifrons) was tested as follows. The test was run using concentrations of 400 ppm and 50 ppm. One ounce plastic cups containing a cotton wick was sprayed with 0.4 mL of formulated material using a flat-fan nozzle. The excess moisture was allowed to evaporate. Then five to ten carbon dioxide anesthetized adult leafhoppers were added to each cup. The cups were capped and held at room temperature for 24 hours. Percent mortality was then determined.

[7] = system: two spotted spider mite (Tetranychus urticae); test: whole plant or invertebrate; settings: 72 h; for mortality at 50 ppm: read-out: TSSM activity (percent based on mites present in plants sprayed with solvent alone), 50 ppm, squash plants, three days after treatment; for mortality at 400 ppm: read-out: TSSM activity (percent based on mites present in plants sprayed with solvent alone), 400 ppm, squash plants, three days after treatment
[8] = system: Southern corn rootworm (Diabrotica undecimpuctata howardi Barber); test: whole plant or invertebrate; format: in vivo; settings: 400 ppm, soil concentration of 24 ppm, 3-4 days, read-out: SCRW mortality
Protocol: as §1
SCRW refers to southern corn rootworm
as §2
Activity on Southern corn rootworm (Diabrotica undecimpuctata howardi Barber) was evaluated by adding one mL of test solution containing a predetermined concentration of test compound to a cup containing a kernel of corn in 16 g of sterile soil. This produces a soil concentration of 24 ppm. After 1.5 to 2 hours of drying, five 4th instar corn rootworm larvae were added to the individual cups. Mortality was measured at 3-4 days by emptying the cup onto a pan and inspecting the soil for live rootworms.

[9] = system: Pyricularia oryzae (rice blast); test: whole plant or invertebrate; format: in vivo; settings: Pyricularia oryzae, foliar, read-out: PYRIOR disease control, host rice; foliar spray; 400 ppm (+++: 100 ppm)
[10] = system: cotton aphid (Aphis gossypii); test: whole plant or invertebrate; settings: 72 h; for mortality at 50 ppm: read-out: CA activity (percent based on aphids present in plants sprayed with solvent alone), 50 ppm, squash plants, three days after treatment; for mortality at 400 ppm: read-out: CA activity (percent based on aphids present in plants sprayed with solvent alone), 400 ppm, squash plants, three days after treatment
[11] = system: Puccinia recondita tritici (leaf rust); test: Foliar spray fungicide test, Puccinia recondita tritici (leaf rust) on wheat; settings: Puccinia recondita, in Triticum aestivum, foliar, read-out: PUCCRT disease control, host wheat, 400 ppm (+++: 100 ppm)
Protocol: as §3, §6
Puccinia recondita PUCCRT wheat
as §4, §5

[12] = system: German cockroach (Blattella germanicus); test: whole plant or invertebrate; format: in vivo; settings: 240 h, ten days, read-out: GECR activity (rated on live and dead insects)
Protocol: as §1
GECR refers to German cockroach
as §2
Activity against German cockroach (Blattella germanicus) was evaluated as follows. 8 mL of alfalfa based green insect diet material was dispensed into a one ounce diet cup. The cups were then sprayed with formulated material through a flat-fan nozzle. The test was run using concentrations of 400 ppm and 50 ppm. Treated cups were air dried for 24 hours and infested with five late third or early fourth instar German cockroaches. The cups were capped and held for ten days in an environmental growth chamber at a temperature of […]. Activity was then rated based on the total number of live and dead insects.

| SMILES | pest or weed control at 400 µg/mL [1] | pest or weed control at 400 µg/mL [2] | pest or weed control at 50 ppm [3] | pest or weed control at 400 ppm [3] | pest or weed control at 50 ppm [4] | pest or weed control at 400 ppm [4] | pest or weed control at 400 µg/mL [5] | mortality at 50 ppm [6] | mortality at 400 ppm [6] | mortality at 50 ppm [7] | mortality at 400 ppm [7] | mortality at 24 ppm [8] | pest or weed control at 400 µg/mL [9] | mortality at 50 ppm [10] | mortality at 400 ppm [10] | pest or weed control at 400 µg/mL [11] | mortality at 50 ppm [12] | mortality at 400 ppm [12] |
| --- | --- | --- | --- | --- | --- | --- | --- | --- | --- | --- | --- | --- | --- | --- | --- | --- | --- | --- |
| Fc1cccc2c(NCCc3ccc(Oc4ncc(C(F)(F)F)cc4Cl)cc3)ncnc12 [Compound 1] | 90 to 100% | 90 to 100% | 100% | 0% | 100% | 100% | 90 to 100% | 100% | 100% | 0% | 0% | 80% | 90 to 100% | 0% | 0% | 90 to 100% | 0% | 20% |
| Fc1cc(C(F)(F)F)cnc1Oc1ccc(CCOc2ncnc3c(F)cccc23)cc1 [Compound 5] | 90 to 100% | 90 to 100% | – | 100% | – | 100% | 0 to 19% | – | 100% | – | 100% | 100% | 90 to 100% | – | 100% | 90 to 100% | – | 100% |
| Fc1cc(C(F)(F)F)cnc1Oc1ccc(CCNc2ncnc3c(F)cccc23)cc1 [Compound 6] | 90 to 100% | 90 to 100% | 100% | 100% | 100% | 100% | 90 to 100% | 100% | 100% | 0% | 0% | 0% | 90 to 100% | 0% | 0% | 90 to 100% | 40% | 20% |
| Fc1cc(C(F)(F)F)cnc1Oc1ccc(CCOc2ncnc3cccc(F)c23)cc1 [Compound 7] | 0 to 19% | 0 to 19% | 100% | 100% | 100% | 100% | 0 to 19% | 100% | 80% | 100% | 100% | 0% | 0 to 19% | 100% | 100% | 0 to 19% | 0% | 0% |
| Fc1cccc2c(OCCc3ccc(Oc4cc(C(F)(F)F)ccn4)cc3)ncnc12 [Compound 12] | 90 to 100% | 90 to 100% | 70% | 100% | 100% | 100% | 20 to 89% | 80% | 100% | 90% | 100% | 0% | 90 to 100% | 100% | 100% | 90 to 100% | 0% | 60% |
| Fc1cccc2ncnc(OCCc3ccc(Oc4ccc(Cl)cn4)cc3)c12 [Compound 16] | 90 to 100% | 90 to 100% | 100% | 100% | 100% | 100% | 20 to 89% | 80% | 100% | 100% | 100% | 80% | 90 to 100% | 100% | 100% | 90 to 100% | 0% | 40% |
| N#Cc1ccc(Oc2ccc(CCOc3ncnc4c(F)cccc34)cc2)nc1 [Compound 20] | 90 to 100% | 90 to 100% | – | 0% | – | 0% | 20 to 89% | – | 0% | – | 0% | 0% | 90 to 100% | – | 0% | 90 to 100% | – | 0% |
| N#Cc1ccc(Oc2ccc(CCOc3ncnc4ccccc34)cc2)nc1 [Compound 21] | 90 to 100% | 20 to 89% | – | 0% | – | 0% | 20 to 89% | – | 60% | – | 0% | 0% | 20 to 89% | – | 100% | 90 to 100% | – | 0% |
| Fc1cccc2ncnc(OCCc3ccc(Oc4nc(Cl)c(Cl)cc4Cl)cc3)c12 [Compound 43] | – | 0 to 19% | 0% | 0% | 0% | 0% | 0 to 19% | 0% | 0% | 0% | 0% | 0% | 0 to 19% | 0% | 0% | 0 to 19% | 0% | 0% |
